# Assays:
# [1] = Solubility of compound at 37 degC incubated for 24 hrs by HPLC method; format: physicochemical
# [2] = target: Aurora kinase B (Homo sapiens) (UniProt Q96GD4); assay: Inhibition of AURORA-B (unknown origin) at 1 uM by mobility shift microfluidics platform based assay relative to control
# [3] = target: Cytoplasmic tyrosine-protein kinase BMX (Homo sapiens) (UniProt P51813); assay: Inhibition of BMX (unknown origin) at 1 uM by mobility shift microfluidics platform based assay relative to control
# [4] = target: Protein-tyrosine kinase 6 (Homo sapiens) (UniProt Q13882); assay: Inhibition of BRK (unknown origin) at 1 uM by mobility shift microfluidics platform based assay relative to control
# [5] = target: Serine/threonine-protein kinase BRSK2 (Homo sapiens) (UniProt Q8IWQ3); assay: Inhibition of BRSK2 (unknown origin) at 1 uM by mobility shift microfluidics platform based assay relative to control
# [6] = target: Tyrosine-protein kinase BTK (Homo sapiens) (UniProt Q06187); assay: Inhibition of BTK (unknown origin) at 1 uM by mobility shift microfluidics platform based assay relative to control
# [7] = target: Calcium/calmodulin-dependent protein kinase type II subunit beta (Homo sapiens) (UniProt Q13554); assay: Inhibition of CAMK2B (unknown origin) at 1 uM by mobility shift microfluidics platform based assay relative to control
# [8] = target: Calcium/calmodulin-dependent protein kinase type II subunit delta (Homo sapiens) (UniProt Q13557); assay: Inhibition of CAMK2D (unknown origin) at 1 uM by mobility shift microfluidics platform based assay relative to control
# [9] = target: Cyclin-dependent kinase 2 (Homo sapiens) (UniProt P24941); assay: Inhibition of CDK2 (unknown origin) at 1 uM by mobility shift microfluidics platform based assay relative to control
# [10] = target: Casein kinase I isoform gamma-1 (Homo sapiens) (UniProt Q9HCP0); assay: Inhibition of CK1-gamma1 (unknown origin) at 1 uM by mobility shift microfluidics platform based assay relative to control
# [11] = target: Dual specificity protein kinase CLK3 (Homo sapiens) (UniProt P49761); assay: Inhibition of CLK3 (unknown origin) at 1 uM by mobility shift microfluidics platform based assay relative to control
# [12] = target: Dual specificity tyrosine-phosphorylation-regulated kinase 1A (Homo sapiens) (UniProt Q13627); assay: Inhibition of DYRK1A (unknown origin) at 1 uM by mobility shift microfluidics platform based assay relative to control
# [13] = target: Ephrin type-A receptor 1 (Homo sapiens) (UniProt P21709); assay: Inhibition of EPH-A1 (unknown origin) at 1 uM by mobility shift microfluidics platform based assay relative to control
# [14] = target: Fibroblast growth factor receptor 1 (Homo sapiens) (UniProt P11362); assay: Inhibition of FGFR1 (unknown origin) at 1 uM by mobility shift microfluidics platform based assay relative to control
# [15] = target: Vascular endothelial growth factor receptor 1 (Homo sapiens) (UniProt P17948); assay: Inhibition of FLT1 (unknown origin) at 1 uM by mobility shift microfluidics platform based assay relative to control
# [16] = target: Glycogen synthase kinase-3 beta (Homo sapiens) (UniProt P49841); assay: Inhibition of GSK-3-beta (unknown origin) at 1 uM by mobility shift microfluidics platform based assay relative to control
# [17] = target: Tyrosine-protein kinase HCK (Homo sapiens) (UniProt P08631); assay: Inhibition of HCK (unknown origin) at 1 uM by mobility shift microfluidics platform based assay relative to control
# [18] = target: Homeodomain-interacting protein kinase 3 (Homo sapiens) (UniProt Q9H422); assay: Inhibition of HIPK3 (unknown origin) at 1 uM by mobility shift microfluidics platform based assay relative to control
# [19] = target: Inhibitor of nuclear factor kappa-B kinase subunit epsilon (Homo sapiens) (UniProt Q14164); assay: Inhibition of IKK-epsilon (unknown origin) at 1 uM by mobility shift microfluidics platform based assay relative to control
# [20] = target: Serine/threonine-protein kinase LATS1 (Homo sapiens) (UniProt O95835); assay: Inhibition of LATS1 (unknown origin) at 1 uM by mobility shift microfluidics platform based assay relative to control
# [21] = target: Tyrosine-protein kinase Lck (Homo sapiens) (UniProt P06239); assay: Inhibition of LCK (unknown origin) at 1 uM by mobility shift microfluidics platform based assay relative to control
# [22] = target: Dual specificity mitogen-activated protein kinase kinase 1 (Homo sapiens) (UniProt Q02750); assay: Inhibition of MEK1 (unknown origin) at 1 uM by mobility shift microfluidics platform based assay relative to control
# [23] = target: Serine/threonine-protein kinase 3 (Homo sapiens) (UniProt Q13188); assay: Inhibition of MST2 (unknown origin) at 1 uM by mobility shift microfluidics platform based assay relative to control
# [24] = target: Mitogen-activated protein kinase 14 (Homo sapiens) (UniProt Q16539); assay: Inhibition of P38-alpha (unknown origin) at 1 uM by mobility shift microfluidics platform based assay relative to control
# [25] = target: Serine/threonine-protein kinase PAK 1 (Homo sapiens) (UniProt Q13153); assay: Inhibition of PAK1 (unknown origin) at 1 uM by mobility shift microfluidics platform based assay relative to control
# [26] = target: PAS domain-containing serine/threonine-protein kinase (Homo sapiens) (UniProt Q96RG2); assay: Inhibition of PASK (unknown origin) at 1 uM by mobility shift microfluidics platform based assay relative to control
# [27] = target: Protein kinase C beta type (Homo sapiens) (UniProt P05771); assay: Inhibition of PKC-beta2 (unknown origin) at 1 uM by mobility shift microfluidics platform based assay relative to control
# [28] = target: Protein kinase C theta type (Homo sapiens) (UniProt Q04759); assay: Inhibition of PKC-theta (unknown origin) at 1 uM by mobility shift microfluidics platform based assay relative to control
# [29] = target: Serine/threonine-protein kinase N1 (Homo sapiens) (UniProt Q16512); assay: Inhibition of PKN1 (unknown origin) at 1 uM by mobility shift microfluidics platform based assay relative to control
# [30] = target: MAP kinase-activated protein kinase 5 (Homo sapiens) (UniProt Q8IW41); assay: Inhibition of PRAK (unknown origin) at 1 uM by mobility shift microfluidics platform based assay relative to control
# [31] = target: Macrophage-stimulating protein receptor (Homo sapiens) (UniProt Q04912); assay: Inhibition of RON (unknown origin) at 1 uM by mobility shift microfluidics platform based assay relative to control
# [32] = target: Serine/threonine-protein kinase TBK1 (Homo sapiens) (UniProt Q9UHD2); assay: Inhibition of TBK1 (unknown origin) at 1 uM by mobility shift microfluidics platform based assay relative to control
# [33] = target: Non-receptor tyrosine-protein kinase TNK1 (Homo sapiens) (UniProt Q13470); assay: Inhibition of TNK1 (unknown origin) at 1 uM by mobility shift microfluidics platform based assay relative to control
# [34] = target: Testis-specific serine/threonine-protein kinase 1 (Homo sapiens) (UniProt Q9BXA7); assay: Inhibition of TSSK1 (unknown origin) at 1 uM by mobility shift microfluidics platform based assay relative to control
# Sequence of Non-receptor tyrosine-protein kinase TNK1 (Homo sapiens) (Q13470 whole entry): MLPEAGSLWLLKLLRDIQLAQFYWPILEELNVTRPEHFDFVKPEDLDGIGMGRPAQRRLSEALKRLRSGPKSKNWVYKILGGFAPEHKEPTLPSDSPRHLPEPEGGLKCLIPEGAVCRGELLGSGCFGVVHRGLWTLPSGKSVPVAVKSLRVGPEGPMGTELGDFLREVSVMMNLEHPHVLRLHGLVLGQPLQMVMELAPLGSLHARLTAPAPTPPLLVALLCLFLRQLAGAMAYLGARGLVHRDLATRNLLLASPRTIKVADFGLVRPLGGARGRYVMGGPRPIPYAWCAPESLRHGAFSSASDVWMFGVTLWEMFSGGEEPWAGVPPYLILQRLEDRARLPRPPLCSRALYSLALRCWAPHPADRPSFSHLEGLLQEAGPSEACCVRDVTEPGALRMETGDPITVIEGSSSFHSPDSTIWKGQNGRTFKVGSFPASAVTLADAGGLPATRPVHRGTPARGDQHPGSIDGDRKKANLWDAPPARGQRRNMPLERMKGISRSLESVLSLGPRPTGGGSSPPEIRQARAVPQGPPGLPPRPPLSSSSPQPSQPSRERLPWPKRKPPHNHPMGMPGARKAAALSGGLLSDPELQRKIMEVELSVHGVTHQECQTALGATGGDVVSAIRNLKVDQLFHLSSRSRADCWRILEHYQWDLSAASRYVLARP
# Sequence of Casein kinase I isoform gamma-1 (Homo sapiens) (Q9HCP0 whole entry, looked up, canonical isoform): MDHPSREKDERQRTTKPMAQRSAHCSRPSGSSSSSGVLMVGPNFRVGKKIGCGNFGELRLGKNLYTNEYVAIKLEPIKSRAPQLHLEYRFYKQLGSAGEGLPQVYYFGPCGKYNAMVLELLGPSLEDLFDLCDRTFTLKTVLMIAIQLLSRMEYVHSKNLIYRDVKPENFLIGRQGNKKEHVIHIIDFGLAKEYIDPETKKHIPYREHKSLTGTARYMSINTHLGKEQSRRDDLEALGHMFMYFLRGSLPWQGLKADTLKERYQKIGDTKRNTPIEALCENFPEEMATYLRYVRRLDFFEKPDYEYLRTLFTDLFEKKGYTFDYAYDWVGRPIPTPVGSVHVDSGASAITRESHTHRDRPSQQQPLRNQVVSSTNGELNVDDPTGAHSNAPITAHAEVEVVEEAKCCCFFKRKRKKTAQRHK
# Sequence of Calcium/calmodulin-dependent protein kinase type II subunit beta (Homo sapiens) (Q13554 whole entry): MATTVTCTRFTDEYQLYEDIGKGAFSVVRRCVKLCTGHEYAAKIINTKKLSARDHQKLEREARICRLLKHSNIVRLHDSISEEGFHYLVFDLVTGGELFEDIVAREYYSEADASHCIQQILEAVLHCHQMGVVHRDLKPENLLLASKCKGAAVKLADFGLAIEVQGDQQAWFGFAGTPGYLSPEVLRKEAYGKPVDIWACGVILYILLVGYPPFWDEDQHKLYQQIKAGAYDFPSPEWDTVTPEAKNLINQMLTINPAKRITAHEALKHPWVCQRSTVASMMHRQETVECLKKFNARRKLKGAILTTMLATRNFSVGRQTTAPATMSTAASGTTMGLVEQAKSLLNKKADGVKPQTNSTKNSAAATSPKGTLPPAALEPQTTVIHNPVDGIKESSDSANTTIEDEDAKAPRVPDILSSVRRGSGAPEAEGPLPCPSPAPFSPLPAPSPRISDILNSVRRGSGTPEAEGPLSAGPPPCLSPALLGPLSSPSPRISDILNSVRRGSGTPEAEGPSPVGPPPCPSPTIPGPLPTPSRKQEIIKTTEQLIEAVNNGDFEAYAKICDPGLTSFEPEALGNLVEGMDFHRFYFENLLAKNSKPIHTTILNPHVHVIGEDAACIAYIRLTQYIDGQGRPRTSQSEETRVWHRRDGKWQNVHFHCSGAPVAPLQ
# Sequence of Serine/threonine-protein kinase BRSK2 (Homo sapiens) (Q8IWQ3 whole entry): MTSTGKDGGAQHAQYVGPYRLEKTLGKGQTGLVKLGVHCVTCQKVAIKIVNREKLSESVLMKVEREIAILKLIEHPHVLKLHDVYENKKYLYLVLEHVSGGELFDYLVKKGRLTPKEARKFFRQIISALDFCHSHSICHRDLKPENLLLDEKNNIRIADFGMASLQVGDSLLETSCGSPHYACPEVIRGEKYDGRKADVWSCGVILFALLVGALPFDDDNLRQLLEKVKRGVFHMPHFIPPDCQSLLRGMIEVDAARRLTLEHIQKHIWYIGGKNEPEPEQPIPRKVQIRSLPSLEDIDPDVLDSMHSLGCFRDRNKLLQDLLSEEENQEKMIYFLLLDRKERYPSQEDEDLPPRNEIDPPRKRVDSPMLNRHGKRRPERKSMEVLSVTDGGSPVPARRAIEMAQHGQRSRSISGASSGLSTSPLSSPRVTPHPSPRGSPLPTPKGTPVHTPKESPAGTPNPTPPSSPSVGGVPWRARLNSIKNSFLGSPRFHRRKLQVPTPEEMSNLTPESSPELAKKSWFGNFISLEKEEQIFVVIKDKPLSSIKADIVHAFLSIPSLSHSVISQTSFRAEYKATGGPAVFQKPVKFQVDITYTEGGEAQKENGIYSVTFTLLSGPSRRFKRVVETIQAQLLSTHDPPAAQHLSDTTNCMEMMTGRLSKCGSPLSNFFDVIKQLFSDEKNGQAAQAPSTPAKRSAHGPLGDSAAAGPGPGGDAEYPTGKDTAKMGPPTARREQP
# Sequence of Fibroblast growth factor receptor 1 (Homo sapiens) (P11362 22-822 limits assumed): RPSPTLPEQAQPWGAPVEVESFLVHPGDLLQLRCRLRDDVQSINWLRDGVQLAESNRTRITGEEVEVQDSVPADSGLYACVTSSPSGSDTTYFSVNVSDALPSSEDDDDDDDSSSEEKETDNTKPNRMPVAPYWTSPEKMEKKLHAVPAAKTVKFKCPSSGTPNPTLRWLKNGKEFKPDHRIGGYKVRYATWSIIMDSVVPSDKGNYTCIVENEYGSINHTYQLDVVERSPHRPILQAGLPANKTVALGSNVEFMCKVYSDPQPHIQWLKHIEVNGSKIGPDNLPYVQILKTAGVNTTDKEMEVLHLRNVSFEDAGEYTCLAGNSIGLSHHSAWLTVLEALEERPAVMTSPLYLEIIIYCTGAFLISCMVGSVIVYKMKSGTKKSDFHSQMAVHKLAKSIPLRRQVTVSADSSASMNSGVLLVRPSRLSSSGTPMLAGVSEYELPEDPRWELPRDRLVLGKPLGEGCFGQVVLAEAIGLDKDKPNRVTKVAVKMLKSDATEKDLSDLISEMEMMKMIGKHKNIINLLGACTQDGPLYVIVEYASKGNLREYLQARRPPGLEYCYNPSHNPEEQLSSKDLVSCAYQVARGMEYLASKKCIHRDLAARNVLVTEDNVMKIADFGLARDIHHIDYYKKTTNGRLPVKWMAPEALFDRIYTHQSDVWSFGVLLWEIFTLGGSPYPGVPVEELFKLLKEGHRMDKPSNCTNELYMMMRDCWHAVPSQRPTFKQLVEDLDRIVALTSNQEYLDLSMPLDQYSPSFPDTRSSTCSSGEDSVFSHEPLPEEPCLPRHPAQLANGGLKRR
# Sequence of Vascular endothelial growth factor receptor 1 (Homo sapiens) (P17948 whole entry): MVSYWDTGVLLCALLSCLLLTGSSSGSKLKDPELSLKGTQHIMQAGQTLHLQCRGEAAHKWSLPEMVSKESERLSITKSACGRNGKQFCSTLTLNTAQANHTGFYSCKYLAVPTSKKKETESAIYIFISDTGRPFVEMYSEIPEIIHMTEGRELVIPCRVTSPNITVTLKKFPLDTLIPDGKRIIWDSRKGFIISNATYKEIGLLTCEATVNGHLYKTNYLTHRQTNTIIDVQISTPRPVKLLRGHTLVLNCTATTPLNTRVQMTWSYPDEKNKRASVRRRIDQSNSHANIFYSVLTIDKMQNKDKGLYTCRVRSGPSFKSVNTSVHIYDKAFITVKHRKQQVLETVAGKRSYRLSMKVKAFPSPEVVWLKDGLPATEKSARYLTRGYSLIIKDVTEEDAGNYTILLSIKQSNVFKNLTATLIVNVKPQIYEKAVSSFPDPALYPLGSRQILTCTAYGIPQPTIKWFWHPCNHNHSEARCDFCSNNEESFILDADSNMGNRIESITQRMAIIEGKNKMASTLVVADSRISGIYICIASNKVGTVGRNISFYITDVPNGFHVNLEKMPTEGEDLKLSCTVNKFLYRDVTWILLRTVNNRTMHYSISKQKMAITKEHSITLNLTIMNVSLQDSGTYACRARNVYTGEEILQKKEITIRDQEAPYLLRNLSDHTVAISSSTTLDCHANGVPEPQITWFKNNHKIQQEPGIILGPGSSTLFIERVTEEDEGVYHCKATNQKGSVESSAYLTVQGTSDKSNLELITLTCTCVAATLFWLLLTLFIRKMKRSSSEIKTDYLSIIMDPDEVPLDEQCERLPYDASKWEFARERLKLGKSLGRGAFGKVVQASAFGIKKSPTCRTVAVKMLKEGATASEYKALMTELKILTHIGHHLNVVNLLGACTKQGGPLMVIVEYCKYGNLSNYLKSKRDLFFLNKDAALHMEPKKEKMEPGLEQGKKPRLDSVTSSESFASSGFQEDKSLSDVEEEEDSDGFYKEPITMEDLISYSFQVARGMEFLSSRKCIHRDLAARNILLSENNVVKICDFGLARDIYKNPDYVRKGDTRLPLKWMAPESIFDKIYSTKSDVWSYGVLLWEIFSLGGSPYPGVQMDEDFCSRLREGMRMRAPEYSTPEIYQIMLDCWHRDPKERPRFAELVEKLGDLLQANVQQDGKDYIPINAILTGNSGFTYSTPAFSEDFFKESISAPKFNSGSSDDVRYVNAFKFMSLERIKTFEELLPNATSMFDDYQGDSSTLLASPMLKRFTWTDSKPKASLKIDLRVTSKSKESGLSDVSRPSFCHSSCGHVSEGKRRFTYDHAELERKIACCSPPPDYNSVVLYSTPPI
# Sequence of Glycogen synthase kinase-3 beta (Homo sapiens) (P49841 whole entry, looked up): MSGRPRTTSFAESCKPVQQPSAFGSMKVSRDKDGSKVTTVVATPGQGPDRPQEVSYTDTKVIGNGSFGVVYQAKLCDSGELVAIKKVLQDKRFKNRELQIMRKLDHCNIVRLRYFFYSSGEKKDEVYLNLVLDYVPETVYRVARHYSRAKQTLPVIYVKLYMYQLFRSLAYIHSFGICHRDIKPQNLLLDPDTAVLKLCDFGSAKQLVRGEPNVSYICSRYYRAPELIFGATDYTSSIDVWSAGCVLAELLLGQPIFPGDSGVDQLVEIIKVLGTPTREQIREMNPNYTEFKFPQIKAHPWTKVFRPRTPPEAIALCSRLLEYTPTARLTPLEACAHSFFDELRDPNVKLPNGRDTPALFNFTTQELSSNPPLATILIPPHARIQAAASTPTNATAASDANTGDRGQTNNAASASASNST
smiles,measurement,setting,value
CC(C)n1nc(C#Cc2cccc3cc(-c4cccc(C(F)(F)F)c4)ncc23)c2c(N)ncnc21,solubility at 24 h,[1],60 µM
same,inhibition,[2],27%
same,inhibition,[3],36%
same,inhibition,[4],86%
same,inhibition,[5],0%
same,inhibition,[6],5%
same,inhibition,[7],5%
same,inhibition,[8],0%
same,inhibition,[9],1%
same,inhibition,[10],-5%
same,inhibition,[11],6%
same,inhibition,[12],2%
same,inhibition,[13],46%
same,inhibition,[14],91%
same,inhibition,[15],89%
same,inhibition,[16],3%
same,inhibition,[17],81%
same,inhibition,[18],-1%
same,inhibition,[19],8%
same,inhibition,[20],3%
same,inhibition,[21],85%
same,inhibition,[22],-8%
same,inhibition,[23],2%
same,inhibition,[24],15%
same,inhibition,[25],-1%
same,inhibition,[26],1%
same,inhibition,[27],5%
same,inhibition,[28],-2%
same,inhibition,[29],6%
same,inhibition,[30],7%
same,inhibition,[31],1%
same,inhibition,[32],1%
same,inhibition,[33],19%
same,inhibition,[34],-1%
CC(C)n1nc(C#Cc2cccc(NC(=O)c3cccc(C(F)(F)F)c3)c2)c2c(N)ncnc21,solubility at 24 h,[1],161 µM
same,inhibition,[2],82%
same,inhibition,[3],98%
same,inhibition,[4],97%
same,inhibition,[5],-3%
same,inhibition,[6],71%
same,inhibition,[7],1%
same,inhibition,[8],-1%
same,inhibition,[9],3%
same,inhibition,[10],9%
same,inhibition,[11],-1%
same,inhibition,[12],2%
same,inhibition,[13],97%
same,inhibition,[14],98%
same,inhibition,[15],99%
same,inhibition,[16],19%
same,inhibition,[17],107%
same,inhibition,[18],0%
same,inhibition,[19],17%
same,inhibition,[20],-4%
same,inhibition,[21],100%
same,inhibition,[22],13%
same,inhibition,[23],2%
same,inhibition,[24],70%
same,inhibition,[25],0%
same,inhibition,[26],-4%
same,inhibition,[27],2%
same,inhibition,[28],0%
same,inhibition,[29],-2%
same,inhibition,[30],-1%
same,inhibition,[31],2%
same,inhibition,[32],6%
same,inhibition,[33],84%
same,inhibition,[34],0%
